Test results: patent US11964953B2, “Substituted aminothiazoles as DGKzeta inhibitors for immune activation” (Bayer Aktiengesellschaft, priority 2020, dated 2024)

Molecular target: human DGKζ (Homo sapiens (Human), UniProt Q13574)
Test: Human DGKζ kinase activity inhibition assay (ADP-Glo)
Format: biochemical
Details: IC50, in vitro human DGKζ kinase activity inhibition assay
Method: Human DGKζ Kinase Activity Inhibition Assay. Human diacylglycerol kinase zeta (DGKζ) inhibitory activity of compounds of the present invention was quantified employing the human DGKζ kinase activity assay as described in the following paragraphs. In essence, the enzyme activity was measured by quantification of the adenosine-di-phosphate (ADP) generated as a co-product of the enzyme reaction via the “ADP-Glo™ Kinase Assay” kit from the company Promega. This detection system works as follows: In a first step the adenosine-tri-phosphate (ATP) not consumed in the kinase reaction is quantitatively converted to cyclic adenosine-mono-phosphate (cAMP) employing an adenylate cyclase (“ADP-Glo-reagent”), then the adenylate cyclase is stopped and the ADP generated in the kinase reaction is converted to ATP, which subsequently generates in a luciferase-based reaction a glow-luminescence signal (“Kinase Detection Reagent”). C-terminally FLAG-tagged, recombinant full-length human DGKζ (in house expressed in baculovirus infected insect cells, purified using anti-Flag pulldown and size exclusion chromatography) was used as enzyme. As an alternative, commercially available enzyme by Carnabio can be used. […] Subsequently, 22.55 volumes of a 510 mM solution of octyl-β-D-glucopyranoside (Sigma-Aldrich, Cat. #O8001-10G) in 50 mM MOPS buffer (pH 7.4) were added, and the mixture was sonicated in an ultrasonic bath for 20 s. […] Viewlux™ from Perkin-Elmer). The amount of emitted light was taken as a measure for the amount of ADP generated and thereby for the activity of the DGKζ.

human DGKζ, sequence (Q13574 other isoform, or with tags, fused parts or gaps): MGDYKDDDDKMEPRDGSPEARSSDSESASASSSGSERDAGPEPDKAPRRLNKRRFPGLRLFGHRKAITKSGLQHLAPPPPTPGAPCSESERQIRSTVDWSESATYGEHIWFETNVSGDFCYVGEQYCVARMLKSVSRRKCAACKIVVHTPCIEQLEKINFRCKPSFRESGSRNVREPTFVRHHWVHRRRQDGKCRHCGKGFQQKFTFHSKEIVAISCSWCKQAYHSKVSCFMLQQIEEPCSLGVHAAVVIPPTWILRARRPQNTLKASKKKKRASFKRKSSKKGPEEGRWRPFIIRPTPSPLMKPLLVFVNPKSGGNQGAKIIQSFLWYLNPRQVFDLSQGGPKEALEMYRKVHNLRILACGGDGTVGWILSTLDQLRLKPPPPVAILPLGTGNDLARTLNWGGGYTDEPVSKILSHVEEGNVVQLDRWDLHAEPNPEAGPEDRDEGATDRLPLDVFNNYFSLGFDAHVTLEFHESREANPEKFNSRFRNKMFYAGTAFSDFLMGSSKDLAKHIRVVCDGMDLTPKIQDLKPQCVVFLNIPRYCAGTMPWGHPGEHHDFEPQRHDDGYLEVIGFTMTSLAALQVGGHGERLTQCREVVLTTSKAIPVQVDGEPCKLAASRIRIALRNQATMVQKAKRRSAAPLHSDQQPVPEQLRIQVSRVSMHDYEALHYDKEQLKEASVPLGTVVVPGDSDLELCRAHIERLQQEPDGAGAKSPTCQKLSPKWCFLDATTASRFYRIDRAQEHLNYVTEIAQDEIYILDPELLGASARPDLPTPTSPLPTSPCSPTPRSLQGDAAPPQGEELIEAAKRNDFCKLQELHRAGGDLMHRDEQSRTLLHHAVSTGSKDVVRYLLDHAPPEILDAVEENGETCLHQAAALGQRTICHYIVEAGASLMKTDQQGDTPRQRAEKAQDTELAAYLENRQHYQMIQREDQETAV

| Structure (SMILES) | IC50 [nM] |
| --- | --- |
| Cc1cccc(N(C)C(=O)COc2ccc(C(=O)c3sc(N(c4ccc(F)cc4)C(C)C(N)=O)nc3N)cc2)c1 (racemic) [Example 140, rac-2-(N-[4-amino-5-[4-[2-(N,3-dimethylanilino)-2-oxo-ethoxy]benzoyl]thiazol-2-yl]-4-fluoro-anilino)propanamide] | 37.5 |

Same assay, conditions: in vitro human DGKζ kinase activity inhibition assay; read-out: IC50

| Structure (SMILES) | IC50 [nM] |
| --- | --- |
| CC(C(N)=O)N(c1ccc(Cl)c(F)c1)c1nc(N)c(C(=O)c2ccc(OCc3ccccc3)cc2)s1 (single isomer, unassigned) [Example 166.2, 2-(N-[4-amino-5-(4-benzyloxybenzoyl)thiazol-2-yl]-4-chloro-3-fluoro-anilino)propanamide] | 129 |
| CCOC(=O)COc1ccc(C(=O)c2sc(N(c3ccc(F)cc3)C(C)C(N)=O)nc2N)cc1 (single isomer, unassigned; enantiomer 1) [Example 81.1, ethyl 2-[4-[4-amino-2-(4-fluoro-N-[2-amino-1-methyl-2-oxo-ethyl]anilino)thiazole-5-carbonyl]phenoxy]acetate (enantiomer 1)] | 1020 |
| CC(C(N)=O)N(c1ccc(OC(F)(F)F)nc1)c1nc(N)c(C(=O)c2ccccc2)s1 (racemic) [Example 228, rac-2-[(4-amino-5-benzoyl-thiazol-2-yl)-[6-(trifluoromethoxy)-3-pyridyl]amino]propanamide] | 218 |
| CC(C(N)=O)N(c1ccc(C(F)F)nc1)c1nc(N)c(C(=O)c2ccccc2)s1 (racemic) [Example 231, rac-2-[(4-amino-5-benzoyl-thiazol-2-yl)-[6-(difluoromethyl)-3-pyridyl]amino]propanamide] | 662 |
| CC(C(N)=O)N(c1ccc(Cl)c(F)c1)c1nc(N)c(C(=O)c2ccc(OC(F)F)nc2)s1 (single isomer, unassigned) [Example 164.1, 2-(N-[4-amino-5-[6-(difluoromethoxy)pyridine-3-carbonyl]thiazol-2-yl]-4-chloro-3-fluoro-anilino)propanamide] | 5 |
| CC(C(N)=O)N(c1ccc(C(F)(F)F)cc1)c1nc(N)c(C(=O)c2ccccc2)s1 (racemic) [Example 28, rac-2-[N-(4-amino-5-benzoyl-thiazol-2-yl)-4-(trifluoromethyl)anilino]propanamide] | 61 |
| CC(C(N)=O)N(c1ccc(F)c(F)c1)c1nc(N)c(C(=O)c2ccccc2)s1 (racemic) [Example 32, rac-2-(N-(4-amino-5-benzoyl-thiazol-2-yl)-3,4-difluoro-anilino)propanamide] | 38.7 |
| COc1ccc(C(=O)c2sc(N(c3ccc(F)c(Cl)c3)C(C)C(N)=O)nc2N)cc1 (single isomer, unassigned) [Example 161.1, 2-(N-[4-amino-5-(4-methoxybenzoyl)thiazol-2-yl]-3-chloro-4-fluoro-anilino)propanamide] | 9 |
| CC(C(N)=O)N(c1ccc(F)c(F)c1)c1nc(N)c(C(=O)c2ccc(OC(F)F)nc2)s1 (racemic) [Example 163, rac-2-(N-[4-amino-5-[6-(difluoromethoxy)pyridine-3-carbonyl]thiazol-2-yl]-3,4-difluoro-anilino)propanamide] | 9 |
| CC(C(N)=O)N(c1ccc(F)cc1)c1nc(N)c(C(=O)c2ccc(N3CCC(C)(C#N)CC3)nc2)s1 (single isomer, unassigned; enantiomer 1) [Example 285.1, 2-(N-[4-amino-5-[6-(4-cyano-4-methyl-1-piperidyl)pyridine-3-carbonyl]thiazol-2-yl]-4-fluoro-anilino)propanamide (enantiomer 1)] | 34 |
| CC(C(N)=O)N(c1ccc(OC(F)(F)F)cc1)c1nc(N)c(C(=O)c2ccc(F)cc2)s1 (racemic) [Example 27, rac-2-[N-[4-amino-5-(4-fluorobenzoyl)thiazol-2-yl]-4-(trifluoromethoxy)anilino]propanamide] | 69.6 |
| CC(C(N)=O)N(c1ccc(OC(F)F)nc1)c1nc(N)c(C(=O)c2ccc(OC(F)F)nc2)s1 (racemic) [Example 255, rac-2-[[4-amino-5-[6-(difluoromethoxy)pyridine-3-carbonyl]thiazol-2-yl]-[6-(difluoromethoxy)-3-pyridyl]amino]propanamide] | 76 |
| CC(C(N)=O)N(c1ccc(F)cc1)c1nc(N)c(C(=O)c2ccc(OCC(=O)Nc3ccc4ncccc4c3)cc2)s1 (racemic) [Example 108, rac-2-(N-(4-amino-5-[4-[2-oxo-2-(6-quinolylamino)ethoxy]benzoyl]thiazol-2-yl]-4-fluoro-anilino)propanamide] | 19.4 |
| CC(C(N)=O)N(c1ccc(Cl)c(F)c1)c1nc(N)c(C(=O)c2ccc(OC(F)F)cc2)s1 (single isomer, unassigned) [Example 48.2, 2-(N-[4-amino-5-[4-(difluoromethoxy)benzoyl]thiazol-2-yl]-4-chloro-3-fluoro-anilino)propanamide] | 120 |
| CC(C(N)=O)N(c1ccc(Cl)cc1)c1nc(N)c(C(=O)c2ccncc2)s1 (single isomer, unassigned) [Example 57.1, 2-(N-[4-amino-5-(pyridine-4-carbonyl)thiazol-2-yl]-4-chloro-anilino)propanamide] | 137 |
| CC(C(N)=O)N(c1ccc(OC(F)(F)F)c(Cl)c1)c1nc(N)c(C(=O)c2ccc(Cl)cc2)s1 (racemic) [Example 223, rac-2-[N-[4-amino-5-(4-chlorobenzoyl)thiazol-2-yl]-3-chloro-4-(trifluoromethoxy)anilino]propanamide] | 235 |
| COc1ccc(C(=O)c2sc(N(c3ccc(OC(F)(F)F)c(Cl)c3)C(C)C(N)=O)nc2N)cc1 (racemic) [Example 222, rac-2-[N-[4-amino-5-(4-methoxybenzoyl)thiazol-2-yl]-3-chloro-4-(trifluoromethoxy)anilino]propanamide] | 108 |
| CC(C(N)=O)N(c1ccc(F)cc1)c1nc(N)c(C(=O)c2ccc(C#N)cc2)s1 (single isomer, unassigned) [Example 33.2, 2-(N-[4-amino-5-(4-cyanobenzoyl)thiazol-2-yl]-4-fluoro-anilino)propanamide] | 22.8 |
| CC(C(N)=O)N(c1ccc2c(c1)OC(F)(F)O2)c1nc(N)c(C(=O)c2ccc(Cl)cc2)s1 (racemic) [Example 213, rac-2-[[4-amino-5-(4-chlorobenzoyl)thiazol-2-yl]-(2,2-difluoro-1 ,3-benzodioxol-5-yl)amino]propanamide] | 42 |
| CC(C(N)=O)N(c1ccc(Cl)cc1)c1nc(N)c(C(=O)c2ccc(OC(F)F)cc2)s1 (racemic) [Example 47, rac-2-(N-[4-amino-5-[4-(difluoromethoxy)benzoyl]thiazol-2-yl]-4-chloro-anilino)propanamide] | 3.77 |
| CC(C(N)=O)N(c1ccc(Cl)c(F)c1)c1nc(N)c(C(=O)c2ccc(C(=O)NCCOc3ccccc3)cc2)s1 (racemic) [Example 268, rac-4-[4-amino-2-(N-(2-amino-1-methyl-2-oxo-ethyl)-4-chloro-3-fluoro-anilino)thiazole-5-carbonyl]-N-(2-phenoxyethyl)benzamide] | 3 |
| CC(Oc1ccc(C(=O)c2sc(N(c3ccccc3)C(C)C(N)=O)nc2N)cc1)C(N)=O (single isomer, unassigned) [Example 45.2, 2-(N-[4-amino-5-[4-[2-amino-1-methyl-2-oxo-ethoxy]benzoyl]thiazol-2-yl]anilino)propanamide] | 8910 |
| CC(C(N)=O)N(c1ccc(OC(F)(F)F)c(F)c1)c1nc(N)c(C(=O)c2ccc(OC(F)F)nc2)s1 (racemic) [Example 221, rac-2-[N-[4-amino-5-[6-(difluoromethoxy)pyridine-3-carbonyl]thiazol-2-yl]-3-fluoro-4-(trifluoromethoxy)anilino]propanamide] | 31 |
| Cc1ccc(N(c2nc(N)c(C(=O)c3ccccc3)s2)C(C)C(N)=O)cc1 (racemic) [Example 73, rac-2-(N-(4-amino-5-benzoyl-thiazol-2-yl)-4-methyl-anilino)propanamide] | 148 |
| CC(C(N)=O)N(c1ccc(OC(F)F)c(F)c1)c1nc(N)c(C(=O)c2ccc(OC(F)F)nc2)s1 (racemic) [Example 210, rac-2-[N-[4-amino-5-[6-(difluoromethoxy)pyridine-3-carbonyl]thiazol-2-yl]-4-(difluoromethoxy)-3-fluoro-anilino]propanamide] | 69 |
| CC(C(N)=O)N(c1ccc(F)cc1)c1nc(N)c(C(=O)c2ccc(OCC(=O)N3CCC(Cc4ccccc4)CC3)cc2)s1 (racemic) [Example 90, rac-2-(N-[4-amino-5-[4-[2-(4-benzyl-1-piperidyl)-2-oxo-ethoxy]benzoyl]thiazol-2-yl]-4-fluoro-anilino)propanamide] | 63.3 |
| CC(C(N)=O)N(c1ccc(Cl)cc1)c1nc(N)c(C(=O)c2ccc(Cl)cc2)s1 (single isomer, unassigned) [Example 41.2, 2-(N-[4-amino-5-(4-chlorobenzoyl)thiazol-2-yl]-4-chloro-anilino)propanamide] | 7.73 |
| CC(C(N)=O)N(c1ccccc1)c1nc(N)c(C(=O)c2ccccc2)s1 (racemic) [Example 60, rac-2-(N-(4-amino-5-benzoyl-thiazol-2-yl)anilino)propanamide] | 403 |
